Source: patent publication US20260356803A1, “Nicotinamide derivatives” (Board of Regents, The University of Texas System, priority 2024, published 2026)

Tests used:
IMPDH = test: Guanosine co-titration rescue; type: cell-based; settings: guanosine co-titrated
Description: (§1) Given that vacor, 3-AP, and compound 21 are all metabolized to toxic, NAD-like derivatives through NAMPT and NMNAT, we hypothesized that their anti-cancer activity may also depend on SARM1. To test this, we compared the toxic effects of vacor, 3-AP, and 9 in either wild type cells or cells in which we used CRISPR to silence SARM1. […] These observations highlight that even though these different scaffolds are toxified through the same mechanism, the resulting metabolites may have different activities. We next co-titrated guanosine, which is known to rescue tiazofurin by bypassing IMPDH in guanylate synthesis, with each of the above small molecules. […] To test this hypothesis, we set up in vitro reactions with different combinations of 9, NAMPT and NMNAT. After incubation, metabolites were extracted, reconstituted in aqueous solution and then co-incubated with an established IMPDH2 enzyme assay.

[1] = test system: human MPNST cell line S462; test: S462 cell viability (CellTiter-Glo, 72 h); type: cell-based; settings: 10% FBS Nam-free DMEM; for rescue by nicotinamide: comparison of vacor, 3-AP, tiazofurin and 9
Description: This similarity, in addition to the scaffold's particular sensitivity to modifications around the pyridinyl ring led us to hypothesize that the activity of compounds 1 and 9 may depend on the concentration of Nam in the media. To test this hypothesis, we analyzed the activity of both compounds in media supplemented with increasing concentrations of Nam. […] Given that Nam inhibited compound activity, we considered Nam concentrations in basal culture conditions (DMEM supplemented with 10% fetal bovine serum or FBS) as compared to physiological levels. Nam levels in human serum are estimated to be in the 4 μM range.^5 In contrast, DMEM alone contains […] of Nam and the concentration in 10% FBS is expected to range between 0.574-1.56 μM.^6 To more closely reflect physiologic levels of Nam, we evaluated the activity of these compounds in cells grown in DMEM lacking Nam (Nam-free DMEM), so that the only exogenous Nam derives from 10% FBS. […] These observations indicate that the potency of these compounds is in the nanomolar range when tested in the presence of physiological levels of Nam.
We thus re-assessed the structure activity relationship of compound 21 analogs in Nam-free DMEM supplemented with or without 100 μM Nam (see appendix below: Synthesis, characterization and activity of micromolar and nanomolar active nicotinamide derivatives). […] Particularly notable, even in Nam-depleted conditions, all active analogs retained the same 3-pyridinyl ring as Nam, reinforcing the relationship between structural resemblance to Nam and compound efficacy.
In 96-well assay plates (Corning #2903), 2,000 cells were plated per well in 100 μL of medium and allowed to adhere overnight. The next day, compounds or Nam suspended in DMSO were dispensed to the assayed wells using a D300e Digital Dispenser (Tecan). All wells were normalized to 0.5% DMSO. 72 hours after incubation at 37 °C in 5% CO2, cell viability was assayed using an ATP-based luminescent viability assay, CellTiter-Glo (Promega #G8462). CellTiter-Glo substrate was mixed 1:1 with phosphate-buffered saline (PBS) supplemented with 1% Triton X-100, and 40 μL of this mixture was added to the assay wells. After the plates were shaken on a microplate shaker for 10 minutes at room temperature, luminescence was recorded using a Synergy 2 Microplate Reader or Cytation 5 plate reader (BioTek). In Prism 9 software (GraphPad), ten-point dose response curves were plotted with baseline-correction to the vehicle control well, and IC50 values were calculated by curve fitting using asymmetric (five parameter), least squares fit.

SARM1 = test: Cytotoxicity in SARM1-knockout versus wild type cells; type: cell-based; settings: SARM1-knockout vs wild type
Description: as §1

[2] = test system: NMNAT1 or alcohol dehydrogenase; test: Counter screen with NMN in place of NAM; type: biochemical; settings: role: inhibitor; 50 μM NMN substituted for NAM
Method: NAMPT activity was measured using a coupled-enzyme assay previously described [Revollo, 2014]. Briefly, reactions consisting of 50 mM Tris pH 8, 0.4 mM PRPP, 2.5 mM ATP, 12 mM MgCl2, 0.02% BSA, 1 μM NAMPT, 77 nM NMNAT1, 10 mM semicarbazide, 30 μg/ml alcohol dehydrogenase were set up in a 384-well plate (50 μl/well). […] The reactions were started by addition of 50 μM NAM. Fluorescence due to NADH formation by alcohol dehydrogenase was measured in a BioTek Cytation 5 plate reader (Agilent, USA) set up for excitation at λ=340 nm and detection of emission at λ=460 nm. To counter screen for NMNAT1 or alcohol dehydrogenase inhibition, the assay was set up above but substituting 50 μM NMN (substrate for NMNAT1) for NAM. No inhibition of was observed under these conditions.

Compound | guanosine rescue of toxicity (IMPDH) | toxicity to S462 [1] | rescue by nicotinamide [1] | sensitivity of SARM1-knockout cells (SARM1) | inhibition in counter screen [2] | resistance of SARM1-knockout cells (SARM1)
CC(=O)c1cccnc1 [Compound 3-AP, 3-acetylpyridine, reference compound] | no rescue | toxic to S462 | rescued by nicotinamide | equally sensitive |  | 
O=C(/C=C/c1cccnc1)NCCCCC1CCN(C(=O)c2ccccc2)CC1 [FK866, reference compound] |  |  |  |  | No inhibition | 
O=C(NCc1cccnc1)Nc1ccc([N+](=O)[O-])cc1 [vacor, reference compound] | no rescue | toxic to S462 | rescued by nicotinamide |  |  | 3 fold
